From patent US6670347B2, “19-nor-17α-pregna-1,3,5(10)-trien-17β-ols with a 21,16α-lactone ring” (Schering AG, priority 2000, dated 2003)

Assays:
[1] = molecular target: T1, estrogen receptor preparations of rat uteri (rat uterus cytosol; ERα predominates) (Rattus norvegicus, UniProt P06211); test: Estrogen receptor binding, rat uterus cytosol (competition with 3H-estradiol); settings: relative binding affinity, RBA of reference substance estradiol = 100
T1 construct: The preparation of rat uterus cytosol, and the receptor test with the ER containing cytosol; from tissue; host or cells: rat uterus cytosol
T1 sequence (P06211 1-600): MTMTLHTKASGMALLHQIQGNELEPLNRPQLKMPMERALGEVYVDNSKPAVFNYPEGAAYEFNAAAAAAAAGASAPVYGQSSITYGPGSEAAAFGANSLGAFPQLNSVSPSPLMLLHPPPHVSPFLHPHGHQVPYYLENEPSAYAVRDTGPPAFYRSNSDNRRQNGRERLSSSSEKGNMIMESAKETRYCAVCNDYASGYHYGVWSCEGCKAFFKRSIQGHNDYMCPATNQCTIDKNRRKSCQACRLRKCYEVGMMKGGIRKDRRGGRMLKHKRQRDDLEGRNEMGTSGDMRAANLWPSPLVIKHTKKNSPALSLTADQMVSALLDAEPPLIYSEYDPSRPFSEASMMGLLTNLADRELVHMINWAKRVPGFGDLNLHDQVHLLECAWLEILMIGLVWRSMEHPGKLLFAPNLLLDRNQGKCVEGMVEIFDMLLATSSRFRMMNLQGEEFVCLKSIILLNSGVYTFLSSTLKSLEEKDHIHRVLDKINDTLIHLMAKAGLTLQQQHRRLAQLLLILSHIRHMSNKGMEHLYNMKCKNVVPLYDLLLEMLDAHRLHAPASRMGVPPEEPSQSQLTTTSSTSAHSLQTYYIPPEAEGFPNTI
Protocol: (§1) This patent application describes novel structures for selective estrogens, which have in vitro dissociation with respect to binding to estrogen receptor preparations of the rat uterus and rat prostate. In this case, it is assumed that ERα predominates in the rat uteri over ERβ, while ERβ predominates in the rat prostates over ERα.
(§2) The binding affinity of the new selective estrogens was tested in competitive tests with use of 3H-estradiol as a ligand in estrogen receptor preparations of rat prostates and rat uteri. The preparation of the prostate cytosol and the estrogen receptor test was performed with the prostate cytosol, as described by Testas et al. (1981) (Testsas, J. et al., 1981, Endocrinology 109:1287-1289).
The preparation of rat uterus cytosol, and the receptor test with the ER containing cytosol were performed basically as by Stack and Gorski, 1985 (Stack, Gorski 1985, Endocrinology 117, 2024-2032) with some modifications as described in Fuhrmann et al. (1995) (Fuhrmann U. et al. 1995, Contraception 51:45-52).

[2] = test system: estrogen receptor preparations of rat prostates (rat prostate cytosol; ERβ predominates); test: Estrogen receptor binding, rat prostate cytosol (competition with 3H-estradiol); settings: relative binding affinity, RBA of reference substance estradiol = 100
Protocol: as §1, §2

ovariectomized rats = test: Uterus growth test on ovariectomized rats (3-day treatment); format: in vivo, rat; design: unit not given beside the values; settings: subcutaneously daily over 3 days
Protocol: An in-depth description of the experiment was published (K. H., Fritzemeir, Ch. Hegele-Hartung (1999), Handbook of Pharmacol., Oettel, Schillinger eds., 135/II, 21:1-94). Ovariectomized rats were treated 10 days after ovariectomy with various dosages of the test substance or reference substance. The treatment was carried out subcutaneously daily over 3 days. On day 4, the animals were sacrificed, and the uterus moist and dry weights were determined.

Rat Uterus Cytosol (RBA*) [1] | Rat Prostate Cytosol (RBA*) [2] | Structure (SMILES) | Uterus Moist Weight [Mw ± SD] (ovariectomized rats; dosage 0.1 μg/kg) | Uterus Moist Weight [Mw ± SD] (ovariectomized rats; dosage 1 μg/kg) | Uterus Moist Weight [Mw ± SD] (ovariectomized rats; dosage 10 μg/kg)
12.5 | <0.1 | C[C@]12CC[C@@H]3c4ccc(O)cc4CC[C@H]3[C@@H]1C[C@H]1OC(=O)C[C@]12O [3,17β-Dihydroxy-19-nor-17α-pregna-1,3,5(10)-triene-21,16α-lactone] | 23.7 ± 2.2 | 60.1 ± 7.4 | 95.9 ± 12.4
– | – | C[C@]12CC[C@@H]3c4ccc(O)cc4CC[C@H]3[C@@H]1CC[C@@H]2O [17β-Estradiol, reference compound] | 28.0 ± 2.0 | 71.9 ± 9.6 | 82.3 ± 11.3
